Measurements reported in patent US5348980A, “Enantiomers derived from (S)-2-amino-2-(3,4-dichlorobenzyl)-1-propanol, their use and method of preparation” (Institute de Recherche Jouveinal, priority 1992, dated 1994).
Counter-ions that a name gives are not always drawn. Like-named read-outs stand apart in the source and are kept apart here.

Tested on: bronchoconstriction caused by 100 μmol/kg of histamine
Assay: Histamine-induced bronchoconstriction test (Konzett and Rossler), intraduodenal (i.d.) administration
Type: in vivo, guinea pigs
Details: for ED50: Cavia porcellus; for ED50, inhibition of histamine-induced bronchoconstriction, t = 20': 20 min
From the text: Furthermore, the antihistaminic properties were studied in guinea pigs by the bronchoconstriction test performed according to the method of H. Konzett and R. Rossler (Arch. Exp. Path. Pharmak.--Naunym Schmiedeberg - 195, 71-74, 1940).
The products of the invention were studied in this test after administration in solution or in suspension via the intravenous and intraduodenal routes, and also in powder form via the intranasal route.
Irrespective of the administration route, the preparation of the animals employed in the test consists in first anesthetizing male guinea pigs weighing 350 to 400 g by intraperitoneal (i.p.) injection of a sterile and isotonic solution containing 25% (w/v.) of ethyl carbamate on the basis of 6.0 ml/kg, and in then fitting the animals with a tracheal cannula to permit measurement of the pulmonary pressure, a cannula in the right jugular vein for the intravenous (i.v.) administration of solution, and also a cannula in the left carotid artery for qualitative observation of the blood pressure.
The animals are then connected to a pump (Harvard, ref. 50-1718) in order to maintain an artificial ventilation at a frequency of 60 insufflations per minute; the intratracheal pressure is recorded by an assembly comprising a transducer, an amplifier and a recorder (Gould, respective refs.: PLOEZ, 13-4615-50 and 8188-G4400-06).
Fitted in this way, the animals are left undisturbed for 10 minutes before the beginning of the actual experiment, which is carried out in different ways according to the administration route envisaged.
In base form, the test products are suspended in a solution containing 1% w/v of carboxymethylcellulose (CMC), and, in salt form, they are dissolved in an isotonic solution before being administered via a cannula whose end is placed in the animal's duodenum.
The time schedule for the successive administrations of histamine via the i.v. route and that for the test solution via the i.d. route are identical to that described above in a).
- Calculation and expression of the results:
For each administration route and for each time of administration of histamine, the activity of the products is expressed as the percentage change in amplitude of bronchoconstriction, calculated relative to that produced by the "control" administration of histamine which precedes the administration of the test product. The % change is calculated according to the formula: [formula] in which: Bc(tx) represents the amplitude of the bronchoconstriction in mm at time x,
Bo(tx) the amplitude of the base-line respiration in mm at time x,
Bc(to) and Bo(to) the corresponding amplitudes in mm on receipt of the "control" administration of histamine which precedes that of the test product.
The inhibitory activity of the test products on histamine-induced bronchoconstriction is expressed at different times of the studies as their ED50, which is the effective dose of product, expressed in μmol/kg, capable of inhibiting 50% of the histamine-induced bronchoconstriction at the time in question.
Failing this expression, the results are expressed as a % change at the time in question and for a given concentration of the test product. Under these conditions, a positive percentage corresponds to a potentiating effect on bronchoconstriction and, conversely, a negative percentage to an inhibitory effect.
Statistical analyses of the results were carried out by the Student t test. A value of p<0.05 is considered significant.
The compounds of the invention described in Examples 1 and 2 were employed in these tests. In addition, as a comparative product for the eutomer of Example 1, the racemic (R,S) compound corresponding to it, and which is described and prepared in Example 7 of U.S. Pat. No. 4,994,617, was employed. […]

Compound | ED50 (0.5 h, t = 30', read-out: ED50, inhibition of histamine-induced bronchoconstriction, t = 30') | ED50 (40 min, t = 40', read-out: ED50, inhibition of histamine-induced bronchoconstriction, t = 40') | ED50 (50 min, t = 50', read-out: ED50, inhibition of histamine-induced bronchoconstriction, t = 50') | ED50 (1 h, t = 60', read-out: ED50, inhibition of histamine-induced bronchoconstriction, t = 60') | ED50, inhibition of histamine-induced bronchoconstriction, t = 20' | ED50 (10 min, t = 10', read-out: ED50, inhibition of histamine-induced bronchoconstriction, t = 10') | ED50, inhibition of histamine-induced bronchoconstriction, t = 30' (t = 30', 30 min) | ED50, inhibition of histamine-induced bronchoconstriction, t = 40' (t = 40', 40 min) | ED50, inhibition of histamine-induced bronchoconstriction, t = 50' (t = 50', 50 min) | ED50, inhibition of histamine-induced bronchoconstriction, t = 60' (t = 60', 60 min)
C=CCN(C)[C@](C)(CO)Cc1ccc(Cl)c(Cl)c1 [Example 2, base, (S)-(+)-N-allyl-2-methylamino-2-(3,4-dichlorobenzyl)-1-propanol] | 0.59 µmol/kg | 0.65 µmol/kg | 0.63 µmol/kg | 0.62 µmol/kg | 1.45 µmol/kg |  |  |  |  | 
C=CCN(C)[C@](C)(CO)Cc1ccc(Cl)c(Cl)c1 [Example 2, hydrochloride, (S)-(+)-N-allyl-2-methylamino-2-(3,4-dichlorobenzyl)-1-propanol] |  |  |  |  | 0.42 µmol/kg | 1.59 µmol/kg | 0.33 µmol/kg | 0.48 µmol/kg | 0.51 µmol/kg | 0.56 µmol/kg
